The record followed here is patent US11096928B2, “Pharmaceutical composition” (WUHAN LL SCIENCE AND TECHNOLOGY DEVELOPMENT CO., LTD., priority 2016, dated 2021).

One may read the melting point as the temperature of the solid-liquid transition.

Data set [1] has as its system rats with heart failure by coronary artery ligation (CAL). As to the kind of experiment: Therapeutic effect of pharmaceutical compositions on acute heart failure caused by coronary artery ligation. In kind it is in vivo, rat. The settings on record: Sprague-Dawley rats, after 4 weeks of continuous administration; for EF (left ventricular ejection fraction): cardiac ultrasound. From the text:
Male Sprague-Dawley rats (purchased from Beijing Weitong Lihua Experimental Animal Technology Co., Ltd.) were used to perform heart failure model by coronary artery ligation (CAL). One week after surgery, the myocardial infarct size of the rats was examined by echocardiography. […] Operations on the normal control group were the same as above, except for the absence of arterial ligation. Rats with successful modeling were randomly divided into 9 groups, wherein each group has 10 rats. […] Cardiac function was detected by cardiac ultrasound after 4 weeks of continuous administration, and changes of mean arterial pressure (MAP) and left ventricular ejection fraction (EF) were analyzed.

In data set [2] the test system is spontaneously hypertensive rats. In words: Antihypertensive efficacy test of pharmaceutical compositions in spontaneously hypertensive rats. The format is in vivo, rat. The settings on record: SHR, intragastric once a day, 28 days after administration. The protocol: After that, the blood pressure sensing catheter of hypertension implant was inserted into their abdominal aorta, while the implant was fixed to the abdominal wall, and then postoperative daily care was performed after suturing. […] A group of WKY rats (provided by Beijing Weitong Lihua Co., Ltd.) was set as a normal control group, which were administered intragastrically once a day at a volume calculated by 4 mL/kg for a total of 4 weeks. Each group were administered as follows: The normal control group were not administered; The blank control group were administered 0.5% CMC-Na; […] The valsartan group were administered valsartan dissolved in 0.5% CMC-Na, at a dose of 30 mg/kg; The Azilsartan kaMedoxoMil were administered Azilsartan kaMedoxoMil dissolved in 0.5% CMC-Na, at a dose of 1 mg (azilsartan effective dose)/kg; The AHU […] group were administered AHU 377 K, dissolved in 0.5% CMC-Na, at a dose of 30 mg/kg; The AHU377 ammonium salt group were administered AHU377 ammonium salt, dissolved in 0.5% CMC-Na, at a dose of 30 mg/kg; The LCZ696 group were administered LCZ696, dissolved in 0.5% CMC-Na, at a dose of 60 mg/kg; […]

In data set [3] the test system is chronic heart failure rats. In words: Therapeutic effect of pharmaceutical composition on chronic heart failure rats (high-salt fed DSS rats). In kind it is in vivo, rat. The settings on record: high-salt (8% sodium chloride) fed DSS rats, administration for 7 weeks, analysis at 18-weeks-age. The protocol:
Five-week-old male DSS rats (purchased from Beijing Weitong Lihua Experimental Animal Technology Co., Ltd.) were randomly divided into 10 groups, among which, one group were fed with low salt as normal control group and the other 9 groups were fed with high salt. The low-salt feeding group were administered 0.3% sodium chloride, and high-salt feeding group were administered 8% sodium chloride to induce hypertension-cardiac hypertrophy-heart failure to form pathological model. […] The rats were killed at 18-weeks-age for analysis of blood pressure and atrial natriuretic peptide (ANP).

The subject of data set [4] is spontaneously hypertensive rats. In words: Antihypertensive efficacy test of the compound 1K in spontaneously hypertensive rats. The format is in vivo, rat. To be noted: SHR, intragastric, 1 mg/kg; for Heart rates change, 1 hour after administration / Systolic blood pressure change, 1 hour after administration / Heart rates change, 3 hours after administration / Systolic blood pressure change, 3 hours after administration / Heart rates change, 5 hours after administration / Systolic blood pressure change, 5 hours after administration / Heart rates change, 7 hours after administration / Systolic blood pressure change, 7 hours after administration / Heart rates change, 10 hours after administration / Systolic blood pressure change, 10 hours after administration / Heart rates change, 24 hours after administration / Systolic blood pressure change, 24 hours after administration / Heart rates change, before administration / Systolic blood pressure change, before administration: average ± standard error; for Heart rates change, before administration / Systolic blood pressure change, before administration: before administration (reference value). The protocol:
12-week-old spontaneously hypertensive rats (hereinafter referred to as SHR, purchased from Beijing Weitong Lihua Experimental Animal Technology Co., Ltd.) were anesthetized with 2.5% sodium pentobarbital for intraperitoneal injection. After that, the blood pressure sensing catheter of hypertension implant was inserted into their abdominal aorta, while the implant was fixed to the abdominal wall, and then postoperative daily care was performed after suturing. Rats with systolic blood pressure exceeding 160 mm Hg were divided into 3 groups (control group, compound 1 group and compound 1K group), wherein each group has 8 rats. The control group was administrated 0.5% sodium carboxymethyl cellulose (hereinafter referred to as CMC-Na); the compound 1 group and the compound 1K group were respectively administered the compound 1 and the compound 1K, both of which were dissolved by 0.5% CMC-Na, by intragastric administration, at a dose of 1 mg/kg (calculated by the effective dose of valsartan) and a volume calculated by 4 mL/kg. The systolic blood pressure and heart rate of SHR were compared before and after administration (the systolic blood pressure and heart rate of SHR before administration as reference value), which were detected three times at each time point with the average value recorded.

Molecules are shown by their SMILES.

For the compound `CCOC(=O)[C@H](C)C[C@@H](Cc1ccc(-c2ccccc2)cc1)NC(=O)CCC(=O)O.N` [AHU377 ammonium salt, Ammonium 4-(((2S,4R)-1-([1,1′-biphenyl]-4-yl)-5-ethoxy-4-methyl-5-oxopentane-2-yl)amino)-4-oxobutanoate], the “MAP (mean arterial pressure)” value in data set [1] was determined as 172oup mmHg. In data set [2], this compound yielded a heart rate change of 3 ± 2.1 times/minute and a systolic pressure change of −18.5 ± 2.5 mmHg. Also, in data set [3], the “ANP rate of change” value was 135.3p % and the systolic pressure change is listed as −18.3p am mmHg.

As for `CCOC(=O)[C@H](C)C[C@@H](Cc1ccc(-c2ccccc2)cc1)NC(=O)CCC(=O)[O-].[K+]` [AHU 377K, potassium 4-(((2S,4R)-1-([1,1′-biphenyl]-4-yl)-5-ethoxy-4-methyl-5-oxopentan-2-yl)amino)-4-oxobutanoate], in data set [1], the “MAP (mean arterial pressure)” value is on record as 170.6p7K mmHg and the “EF (left ventricular ejection fraction)” value was determined as 37.46p7K %. Besides, in data set [2], the heart rate change is on record as −8.1 ± 2.8 times/minute and the systolic pressure change is −15.6 ± 2.5 mmHg. Further, in data set [3], the “ANP rate of change” value is 143.6p % and the systolic pressure change was −20.6p7Km mmHg.

For `CCOc1nc2cccc(C(=O)OCc3oc(=O)oc3C)c2n1Cc1ccc(-c2ccccc2-c2noc(=O)[n-]2)cc1.[K+]` [Azilsartan kaMedoxoMil], in data set [1], the “MAP (mean arterial pressure)” value worked out at 150.4sium^ mmHg and the “EF (left ventricular ejection fraction)” value is 45.14siu %. In data set [2], the heart rate change is reported as −11.1 ± 3.7 times/minute and the systolic pressure change was −33.5 ± 3.2 mmHg. In addition, in data set [3], the “ANP rate of change” value is given as 132.3s^ % and the systolic pressure change was −36.3sium mmHg.

On to `CCOc1nc2cccc(C(=O)OC(C)OC(=O)OCc3nc(C)c(C)nc3C)c2n1Cc1ccc(-c2ccccc2-c2noc(=O)[n-]2)cc1.[K+]` (centres unmarked) [Compound 1K], for which, in data set [1], the “MAP (mean arterial pressure)” value amounted to 145.5 ± 8.9 mmHg and the “EF (left ventricular ejection fraction)” value stood at 48.6 ± 5.3%. In addition, in data set [4], the “Heart rates change, 1 hour after administration” value is on record as −3.6 ± 2.4 times/minute; the “Systolic blood pressure change, 1 hour after administration” value is listed as −7.0 ± 3.4 mmHg; the “Heart rates change, 3 hours after administration” value is reported as −5.0 ± 2.5 times/minute; the “Systolic blood pressure change, 3 hours after administration” value is recorded as −34.3 ± 1.9 mmHg. For the same compound, in data set [4], the “Heart rates change, 5 hours after administration” value was −10.1 ± 3.0 times/minute; the “Systolic blood pressure change, 5 hours after administration” value is listed as −46.5 ± 2.5 mmHg; the “Heart rates change, 7 hours after administration” value is recorded as −17.5 ± 3.0 times/minute; the “Systolic blood pressure change, 7 hours after administration” value is recorded as −49.4 ± 4.1 mmHg. Moreover, in data set [4], the “Heart rates change, 10 hours after administration” value was −25.4 ± 2.4 times/minute; the “Systolic blood pressure change, 10 hours after administration” value is −45.3 ± 3.3 mmHg; the “Heart rates change, 24 hours after administration” value is on record as −28.6 ± 8 times/minute; the “Systolic blood pressure change, 24 hours after administration” value is on record as −25.9 ± 3.4 mmHg. In addition, in data set [4], the “Heart rates change, before administration” value is on record as 0.0 ± 0.0 times/minute and the “Systolic blood pressure change, before administration” value was 0.0 ± 0.0 mmHg. Further, in data set [4] (result in words), the “antihypertensive effect compared with the compound 1 group” value is listed as “more potent with longer-lasting antihypertensive effect” and the “effect of lowering heart rate compared with the compound 1 group” value is “more potent with longer-lasting effect of lowering heart rate”. Besides, in data set [2], the heart rate change is −29.3 ± 4.1 times/minute and the systolic pressure change was −50.4 ± 4.7 mmHg. For the same compound, in data set [3], the “ANP rate of change” value is on record as 158 ± 7% and the systolic pressure change is −48.5 ± 7.5 mmHg.

In turn, `CCOc1nc2cccc(C(=O)OC(C)OC(=O)OCc3nc(C)c(C)nc3C)c2n1Cc1ccc(-c2ccccc2-c2noc(=O)[nH]2)cc1` (centres unmarked) [Compound 1] registered a melting point of 135 to 145 °C. In data set [4], the “Heart rates change, 1 hour after administration” value was −3.4 ± 2.6 times/minute; the “Systolic blood pressure change, 1 hour after administration” value was −4.9 ± 4.8 mmHg; the “Heart rates change, 3 hours after administration” value is reported as −2.33 ± 2.6 times/minute; the “Systolic blood pressure change, 3 hours after administration” value was −22.0 ± 3.6 mmHg. In data set [4], the “Heart rates change, 5 hours after administration” value is listed as −6.5 ± 2.8 times/minute; the “Systolic blood pressure change, 5 hours after administration” value was −30.5 ± 3.5 mmHg; the “Heart rates change, 7 hours after administration” value is −6.2 ± 3.0 times/minute; the “Systolic blood pressure change, 7 hours after administration” value is −38.8 ± 2.3 mmHg. Further, in data set [4], the “Heart rates change, 10 hours after administration” value is on record as −12.3 ± 2.8 times/minute; the “Systolic blood pressure change, 10 hours after administration” value is −33.0 ± 1.7 mmHg; the “Heart rates change, 24 hours after administration” value was −6.7 ± 2.6 times/minute; the “Systolic blood pressure change, 24 hours after administration” value is listed as −10.2 ± 2.1 mmHg. Further, in data set [4], the “Heart rates change, before administration” value stood at 0.0 ± 0.0 times/minute and the “Systolic blood pressure change, before administration” value is recorded as 0.0 ± 0.0 mmHg.

As for `CCCCC(=O)N(Cc1ccc(-c2ccccc2-c2nnn[nH]2)cc1)[C@H](C(=O)O)C(C)C` [valsartan], in data set [1], the “EF (left ventricular ejection fraction)” value was found to be 35.3arta^ %. In data set [2], this compound yielded a heart rate change of −10.6 ± 3.2 times/minute and a systolic pressure change of −30.6 ± 3.5 mmHg. In data set [3], the “ANP rate of change” value worked out at 125 ± 52% and the systolic pressure change is −32.4 ± 4.6 mmHg.
